The numbers were not newly measured in patent US6436949B1, “Heterocyclically substituted benzamides and their use” (Abbott Laboratories, priority 1996, dated 2002), which cites them from elsewhere.

For data set [1], the system named is calpain. Particulars: activated platelets; J. Biol. Chem., 1993, Vol 268, 12603-12608.
The subject of data set [2] is calpain. Particulars: J.Med.Chem. 1990,33, 11-13.

Take `CCCC[C@@H](C=O)NC(=O)[C@H](CC(C)C)NC(=O)OCc1ccccc1` [calpeptin]: the “cleavage of pp60src” value in data set [1] is reported as “can be prevented”. As to Ph—CONH—CH(CH2Ph)—CO—COCOOCH3, the inhibition of calpain entry in data set [2] is “weak inhibitor of calpain”.
